# Several values for one entry are separate records, joined by “and”; a condition that tells them apart may be missing. Equal entries are not always repeated. Where two headings read alike, the source gives them in different places.
# Experiments:
# [1] = cited from earlier work
# [2] = system: Phytophthora palmivora; conditions: S-enantiomer versus R-enantiomer of metalaxyl; cited from earlier work
# [3] = system: metalaxyl-sensitive strain of Plasmopara viticola; test: Foliar spray on vine plantlets infected with Plasmopara viticola (two-leaf and three-leaf stage sprayings); format: in vivo
# Procedure: Vine plantlets cv. "Gutedel" are grown under greenhouse conditions using one plant per pot (.O slashed.=6 cm) and sprayed with a spray broth prepared from an emulsion concentrate, either in the two-leaf stage or in the three-leaf stage. The following concentrations of active ingredient are used per batch of 4 plants: 200; 60; 20; 6; 2; 0.6; 0.2; 0.06 mg of a.i./liter. This dilution series is prepared in demineralized water immediately prior to application as a foliar spray. To exclude a gas-phase effect of the a.i. in the vicinity, all plants are separated from each other on the side using translucent plastic foils and kept in the dark for one day at 20°-22° C. and a relative humidity of approximately 100%.
# Then, the entire leaf surface area of the plants is uniformly sprayed to drip point with a freshly prepared sporangia suspension (120 000/ml) of a metalaxyl-sensitive strain of Plasmopara viticola. The plants are then kept for 7 days under a 16 hour photoperiod with artificial daylight at 20°-22° C. and a relative humidity of approximately 100%. This is followed by evaluation of the infestation, separating three-leaf and two-leaf stage sprayings. The tables show in each case the average of 4 parallel sprayings.
# [4] = Degradation behaviour in moderately heavy soil (silt/loam) under laboratory conditions; conditions: for degradation equation Ct, pre-exponential factor: first-order fit; for DT-50 (50% degradation) / DT-90 (90% degradation): from degradation curve FIG. 1
# Procedure: Degradation Behaviour of Racemic Metalaxyl and R-metalaxyl in Moderately Heavy Soil
# Two groups of 8 samples each of biologically active soil (silt/loam; loam: 13.9%; silt: 54.3%; sand: 31.8%; organic carbon: 2.1%; pH 7.3; biomass: 65.1 mg microbial carbon per 100 g soil; origin: Les Evouettes, Valais, Switzerland) are treated in parallel with racemic metalaxyl or R-metalaxyl, respectively, in each case in acetonic solution. The rate of application is 0.5 mg/kg of soil sample, which corresponds to a rate of application of 0.5 kg/hectare. The results are evaluated in duplicate after 0, 7, 14 and 21 days.
# [5] = Degradation behaviour in sandy soil under laboratory conditions; set-up: degradation equation Ct, rate constant in exponent: unit: 1/day; conditions: sand; for degradation equation Ct, pre-exponential factor / degradation equation Ct, rate constant in exponent: first-order fit; for degradation equation Ct, rate constant in exponent: e^(-k*t); for DT-50 (50% degradation) / DT-90 (90% degradation): from degradation curve FIG. 2
# Procedure: Degradation Behaviour of Racemic Metalaxyl and R-metalaxyl in Sandy Soil
# Two groups of 16 samples each of biologically active soil (sandy soil; loam: 5.1%; silt: 11.4%; sand: 83.5%; organic carbon: 1.6%; pH 4; biomass: 51 mg microbial carbon/100 g soil; origin: Collombey, Valais, Switzerland)are treated in parallel with racemic metalaxyl or R-metalaxyl, respectively, in each case in acetonic solution. The rate of application is 0.5 mg/kg of soil sample, which corresponds to a rate of application of 0.5 kg/hectare. The results are evaluated in duplicate after 0, 1, 3, 7, 9, 15, 21 and 29 days.
# [6] = three-leaf stage, 0.06 mg of a.i./liter, untreated control 92
# [7] = three-leaf stage, 0.2 mg of a.i./liter, untreated control 92
# [8] = three-leaf stage, 0.6 mg of a.i./liter, untreated control 92
# [9] = three-leaf stage, 2 mg of a.i./liter, untreated control 92
# [10] = three-leaf stage, 6 mg of a.i./liter, untreated control 92
# [11] = three-leaf stage, 20 mg of a.i./liter, untreated control 92
# [12] = three-leaf stage, 60 mg of a.i./liter, untreated control 92
# [13] = three-leaf stage, 200 mg of a.i./liter, untreated control 92
# [14] = two-leaf stage, 0.06 mg of a.i./liter, untreated control 96
# [15] = two-leaf stage, 0.2 mg of a.i./liter, untreated control 96
# [16] = two-leaf stage, 0.6 mg of a.i./liter, untreated control 96
# [17] = two-leaf stage, 2 mg of a.i./liter, untreated control 96
# [18] = two-leaf stage, 6 mg of a.i./liter, untreated control 96
# [19] = two-leaf stage, 20 mg of a.i./liter, untreated control 96
# [20] = two-leaf stage, 60 mg of a.i./liter, untreated control 96
# [21] = two-leaf stage, 200 mg of a.i./liter, untreated control 96
# [22] = day 7, mean of duplicate, 10080 min
# [23] = day 7, single sample, 10080 min
# [24] = day 14, mean of duplicate, 20160 min
# [25] = day 14, single sample, 20160 min
# [26] = day 21, mean of duplicate, 30240 min
# [27] = day 21, single sample, 30240 min
# [28] = day 1, mean of duplicate, 1440 min
# [29] = day 3, mean of duplicate, 4320 min
# [30] = day 9, mean of duplicate, 12960 min
# [31] = day 9, single sample, 12960 min
# [32] = day 15, mean of duplicate, 21600 min
# [33] = day 15, single sample, 21600 min
# [34] = day 29, mean of duplicate, 41760 min
# [35] = day 29, single sample, 41760 min
compound,measurement,setting,value
"COC(=O)C(C)N(C(=O)c1ccco1)c1c(C)cccc1C (racemic) [Furalaxyl, N-(2,6-dimethylphenyl)-N-(2-furanylcarbonyl)-DL-alanine methyl ester]",DT-50 (hydrolytic half-life),"[1]; 20° C., pH1",> 200 days
same,DT-50 (hydrolytic half-life),"[1]; 20° C., pH9",> 200 days
"COC(=O)C(C)N(C(=O)Cc1ccccc1)c1c(C)cccc1C (racemic) [Benalaxyl, N-(2,6-dimethylphenyl)-N-(phenylacetyl)-DL-alanine methyl ester]",DT-50 (hydrolytic half-life),[1]; pH9.25,86 days
COCC(=O)N(c1c(C)cccc1C)[C@@H](C)C(=O)OC [S-enantiomer of metalaxyl],ED50 inhibitory value in nucleic acid synthesis relative to R-enantiomer (times more unfavorable),[2],approximately fifty
"COCC(=O)N(c1c(C)cccc1C)C(C)C(=O)OC (racemic) [racemic metalaxyl, N-(2,6-dimethylphenyl)-N-(methoxyacetyl)-DL-alanine methyl ester]",Foliar infestation,[3]; [6],92%
same,Foliar infestation,[3]; [7],90%
same,Foliar infestation,[3]; [8],96%
same,Foliar infestation,[3]; [9],80%
same,activity,"[3]; three-leaf stage, 6 mg of a.i./liter (or less)",virtually no activity
same,Foliar infestation,[3]; [10],85%
same,Foliar infestation,[3]; [11],27%
same,activity,"[3]; three-leaf stage, 20 mg/liter",a more clear-cut activity is only discernible
same,Foliar infestation,[3]; [12],0%
same,Foliar infestation,[3]; [13],0%
same,Foliar infestation,[3]; [14],96%
same,Foliar infestation,[3]; [15],97%
same,Foliar infestation,[3]; [16],100%
same,Foliar infestation,[3]; [17],87%
same,Foliar infestation,[3]; [18],76%
same,Foliar infestation,[3]; [19],38%
same,Foliar infestation,[3]; [20],0%
same,Foliar infestation,[3]; [21],0%
same,effect for practical purposes,"[3]; two-leaf stage, below 20 mg of a.i./liter",without effect for practical purposes
same,action against foliar infestation,"[3]; two-leaf stage, below 60 mg of a.i./liter",does not result in a clear-cut action against foliar infestation
same,Compound remaining in soil (% of applied),"[4]; day 0, mean of duplicate",90.39 % of applied
same,Compound remaining in soil (% of applied),"[4]; day 0, single sample",90.41 % of applied and 90.36 % of applied
same,Compound remaining in soil (% of applied),[4]; [22],46.23 % of applied
same,Compound remaining in soil (% of applied),[4]; [23],47.28 % of applied and 45.17 % of applied
same,Compound remaining in soil (% of applied),[4]; [24],35.71 % of applied
same,Compound remaining in soil (% of applied),[4]; [25],35.88 % of applied and 35.54 % of applied
same,Compound remaining in soil (% of applied),[4]; [26],29.20 % of applied
same,Compound remaining in soil (% of applied),[4]; [27],29.34 % of applied and 29.06 % of applied
same,"degradation equation Ct, pre-exponential factor",[4],86.66
same,DT-50 (50% degradation),[4],10.8 days
same,DT-90 (90% degradation),[4],35.7 days
same,"Rate of degradation (% of applied), mean","[5]; day 0, mean of duplicate",97.78 % of applied
same,Rate of degradation (% of applied),"[5]; day 0, single sample",98.00 % of applied and 97.56 % of applied
same,"Rate of degradation (% of applied), mean",[5]; [28],87.82 % of applied
same,Rate of degradation (% of applied),"[5]; day 1, single sample, 1440 min",87.75 % of applied and 87.88 % of applied
same,"Rate of degradation (% of applied), mean",[5]; [29],80.01 % of applied
same,Rate of degradation (% of applied),"[5]; day 3, single sample, 4320 min",80.32 % of applied and 79.69 % of applied
same,"Rate of degradation (% of applied), mean",[5]; [22],65.01 % of applied
same,Rate of degradation (% of applied),[5]; [23],65.41 % of applied and 64.60 % of applied
same,"Rate of degradation (% of applied), mean",[5]; [30],56.26 % of applied
same,Rate of degradation (% of applied),[5]; [31],55.84 % of applied and 56.68 % of applied
same,"Rate of degradation (% of applied), mean",[5]; [32],42.54 % of applied
same,Rate of degradation (% of applied),[5]; [33],43.49 % of applied and 41.58 % of applied
same,"Rate of degradation (% of applied), mean",[5]; [26],31.99 % of applied
same,Rate of degradation (% of applied),[5]; [27],30.77 % of applied and 33.21 % of applied
same,"Rate of degradation (% of applied), mean",[5]; [34],28.49 % of applied
same,Rate of degradation (% of applied),[5]; [35],28.70 % of applied and 28.28 % of applied
same,"degradation equation Ct, pre-exponential factor",[5],93.67
same,"degradation equation Ct, rate constant in exponent",[5],0.05006
same,DT-50 (50% degradation),[5],13.9 days
same,DT-90 (90% degradation),[5],46.0 days
same,DT-50 (hydrolytic half-life),"[1]; 20° C., pH1",> 200 days
same,DT-50 (hydrolytic half-life),"[1]; 20° C., pH9",115 days
COCC(=O)N(c1c(C)cccc1C)[C@H](C)C(=O)OC [R-metalaxyl],Foliar infestation,[3]; [6],93%
same,Foliar infestation,[3]; [7],78%
same,Foliar infestation,[3]; [8],0%
same,Foliar infestation,[3]; [9],0%
same,Foliar infestation,[3]; [10],0%
same,Foliar infestation,[3]; [11],0%
same,Foliar infestation,[3]; [12],0%
same,Foliar infestation,[3]; [13],0%
same,activity relative to racemic metalaxyl,"[3]; three-leaf stage, up to 0.6 mg of a.i./liter",approximately 100 times
same,Foliar infestation,[3]; [14],92%
same,Foliar infestation,[3]; [15],97%
same,Foliar infestation,[3]; [16],78%
same,Foliar infestation,[3]; [17],4%
same,Foliar infestation,[3]; [18],0%
same,Foliar infestation,[3]; [19],0%
same,Foliar infestation,[3]; [20],0%
same,Foliar infestation,[3]; [21],0%
same,activity relative to racemic metalaxyl,"[3]; two-leaf stage, up to dilutions of 2 mg of a.i./liter",up to 30 times
same,Compound remaining in soil (% of applied),"[4]; day 0, mean of duplicate",96.28 % of applied
same,Compound remaining in soil (% of applied),"[4]; day 0, single sample",93.61 % of applied and 98.94 % of applied
same,Compound remaining in soil (% of applied),[4]; [22],25.23 % of applied
same,Compound remaining in soil (% of applied),[4]; [23],24.74 % of applied and 25.7 % of applied
same,Compound remaining in soil (% of applied),[4]; [24],9.85 % of applied
same,Compound remaining in soil (% of applied),[4]; [25],9.07 % of applied and 10.62 % of applied
same,Compound remaining in soil (% of applied),[4]; [26],7.69 % of applied
same,Compound remaining in soil (% of applied),[4]; [27],7.57 % of applied and 7.82 % of applied
same,"degradation equation Ct, pre-exponential factor",[4],95.9
same,DT-50 (50% degradation),[4],3.9 days
same,DT-90 (90% degradation),[4],13.0 days
same,"Rate of degradation (% of applied), mean","[5]; day 0, mean of duplicate",100.02 % of applied
same,Rate of degradation (% of applied),"[5]; day 0, single sample",100.32 % of applied and 99.72 % of applied
same,"Rate of degradation (% of applied), mean",[5]; [28],89.64 % of applied
same,Rate of degradation (% of applied),"[5]; day 1, single sample, 1440 min",89.16 % of applied and 90.13 % of applied
same,"Rate of degradation (% of applied), mean",[5]; [29],75.48 % of applied
same,Rate of degradation (% of applied),"[5]; day 3, single sample, 4320 min",76.96 % of applied and 74.01 % of applied
same,"Rate of degradation (% of applied), mean",[5]; [22],52.59 % of applied
same,Rate of degradation (% of applied),[5]; [23],52.59 % of applied
same,"Rate of degradation (% of applied), mean",[5]; [30],46.84 % of applied
same,Rate of degradation (% of applied),[5]; [31],47.22 % of applied and 46.45 % of applied
same,"Rate of degradation (% of applied), mean",[5]; [32],27.33 % of applied
same,Rate of degradation (% of applied),[5]; [33],24.77 % of applied and 29.89 % of applied
same,"Rate of degradation (% of applied), mean",[5]; [26],17.09 % of applied
same,Rate of degradation (% of applied),[5]; [27],17.12 % of applied and 17.05 % of applied
same,"Rate of degradation (% of applied), mean",[5]; [34],8.72 % of applied
same,Rate of degradation (% of applied),[5]; [35],8.82 % of applied and 8.62 % of applied
same,"degradation equation Ct, pre-exponential factor",[5],98.54
same,"degradation equation Ct, rate constant in exponent",[5],0.08548
same,DT-50 (50% degradation),[5],8.1 days
same,DT-90 (90% degradation),[5],26.9 days
